“And” between values parts separate entries of the source, which are not always exact repeats. Identical values can stand only once. Like-named read-outs stand apart in the source and are kept apart here.
Experiment: Phase 1 single dose pharmacokinetic study of eliglustat tartrate in severe renal impairment and matched normal renal function subjects (Example 3)
Assay type: in vivo, human
Conditions: for AUC / Cmax / AUC(0-inf) / AUC(0-t) / Vd/F / Tmax: human, 100 mg; for AUC: read-out: AUC, geometric mean
Procedure: A phase 1, open-label, 2-stage, pharmacokinetic and tolerability study of single dose eliglustat tartrate in subjects with renal impairment (RI) (mild, moderate, and severe) and subjects with normal renal function, matched to RI subjects by age, weight, and cytochrome P450 [CYP] 2D6 phenotype was carried out to study the effect of mild, moderate, and severe RI on the pharmacokinetics (PK) of eliglustat.
Methodology: A phase 1, open-label, 2-stage, pharmacokinetic and tolerability study of single dose eliglustat tartrate in subjects with renal impairment (RI) (mild, moderate, and severe) and subjects with normal renal function, matched to RI subjects by age, weight, and cytochrome P450 [CYP] 2D6 phenotype.
Approximately 32 subjects were planned to be enrolled in 2 stages: Stage 1 comprised of 8 subjects with severe RI and 8 subjects with normal renal function, matched by CYP2D6 phenotype, weight, and age. […] Stage 2 was to include 8 subjects with mild and 8 subjects with moderate RI. Each cohort was to enroll at least 6 CYP2D6 extensive metabolizers (EMs). The remaining 2 subjects were to be poor metabolizers (PMs), intermediate metabolizers (IMs) or EMs, enrolled according to the following preference: at least 20 subjects were to be screened for each cohort and if identified, up to 2 PMs were to be enrolled. If less than 2 PMs were identified, up to 2 IMs were to be enrolled for a total of 8 subjects. If less than 2 PMs and IMs were identified, up to 2 additional EMs were to be enrolled for a total of 8 subjects. Allowed concomitant medications included no more than one weak CYP3A inhibitor and one weak CYP2D6 inhibitor, alone or in combination.
CYP2D6 EMs and IMs were to receive a single 100 mg dose of eliglustat tartrate while CYP2D6 PMs were to receive a single 50 mg dose of eliglustat tartrate.
Normal renal function subjects: Male or female subjects, between 18 and 79 years, inclusive, body weight within 15% of the body weight of matched subject with RI, BMI between 18.0 and 37.0 kg/m^2 and a CrCl of >80 mL/min. Healthy subjects were also matched by age and CYP2D6 predicted phenotype based on genotype.
A single 100 mg capsule of eliglustat tartrate (equivalent to 84 mg of eliglustat) was to be administered to CYP2D6 EM or IM subjects with RI and matching healthy subjects.
Pharmacokinetics: Plasma eliglustat concentrations were used to determine the following PK parameters using noncompartmental methods: Maximum plasma concentration observed (Cmax), first time to reach Cmax (tmax), area under the plasma concentration versus time curve calculated using the trapezoidal method from time zero to the time corresponding to the last concentration above the limit of quantification, tlast (AUClast), area under the plasma concentration time curve extrapolated to infinity (AUC), terminal half-life associated with the terminal slope Xz (t1/2z), apparent total body clearance of a drug from plasma (CL/F), and apparent volume of distribution during the terminal phase (VZ/F).
Blood samples were collected at the following time points to assess plasma concentrations of eliglustat: predose, and 0.5, 1, 1.5, 2, 2.5, 3, 4, 6, 8, 10, 12, 24, and 36 hours postdose.
Eliglustat concentrations in plasma were determined using a validated liquid chromatography tandem mass spectrometry method with a lower limit of quantification (LLOQ) of 0.2 ng/mL.
Eliglustat PK parameters were summarized using descriptive statistics for each population group and for each CYP2D6 phenotype. For log-transformed Cmax, AUClast, AUC, t1/2z, CL/F, and Vz/F, the effect of severe RI on eliglustat PK parameters after a single dose of eliglustat tartrate was analyzed using a linear fixed effects model on CYP2D6 EM subjects. Inclusion of population, CYP3A weak inhibitor, age, and weight as covariate was selected manually, choosing the model with the lowest AlC value. After testing, the final model chosen were those with only population as fixed term. […]

[1] = CYP2D6 EM, healthy, N=7, single oral 100 mg eliglustat tartrate, plasma
[2] = CYP2D6 EM, severe RI, N=7, single oral 100 mg eliglustat tartrate, plasma
[3] = CYP2D6 IM, healthy, N=1, single oral 100 mg eliglustat tartrate, plasma
[4] = IM severe RI subject taking escitalopram and amlodipine
[5] = Severe RI vs Healthy, CYP2D6 EM subjects (7 severe RI and 7 healthy)

In the case of `CCCCCCCC(=O)N[C@H](CN1CCCC1)[C@H](O)c1ccc2c(c1)OCCO2` [eliglustat, N-((1R,2R)-1-(2,3-dihydrobenzo[b][1,4]dioxin-6-yl)-1-hydroxy-3-(pyrrolidin-1-yl)propan-2-yl)octanamide], the “CL/F, geometric mean” value [1] is reported as “(834) [55.2] L/h”, the “CL/F, mean ± SD” value [1] is reported as 963 ± 532 L/h and the “t1/2z, geometric mean” value [1] is reported as “(8.39) [17.8] h”. The “t1/2z, mean ± SD” value [1] was 8.50 h and 8.50 ± 1.51 h, the “tlast, median” value [1] was 36.00 h and the “CL/F, geometric mean” value [2] was “(845) [39.2] L/h”. For the same compound, the “CL/F, mean ± SD” value [2] was 903 ± 354 L/h, the “t1/2z, geometric mean” value [2] was “(6.51) [13.3] h” and the “t1/2z, mean ± SD” value [2] was 6.56 h and 6.56 ± 0.876 h. The “tlast, median” value [2] was 36.00 h, the CL/F [3] was 151 L/h and the t1/2z [3] was 9.59 h. The tlast [3] was 36.00 h, the tlast (CYP2D6 IM, severe RI, N=1, taking escitalopram and amlodipine, single oral 100 mg eliglustat tartrate, plasma) was 36.00 h and the “AUClast ratio, CYP2D6 IM with severe RI vs CYP2D6 EM with severe RI” value [4] was 35.2 fold. The “AUClast ratio, CYP2D6 IM with severe RI vs CYP2D6 IM healthy subject” value [4] was 6.90 fold, the “AUClast ratio, CYP2D6 IM with severe RI vs healthy CYP2D6 EMs” value [4] was 32.1 fold and the “AUClast geometric mean ratio, point estimate” value [5] was 0.994. The “CL/F geometric mean ratio, point estimate” value [5] was 1.014, the “Vz/F geometric mean ratio, point estimate” value [5] was 0.787 and the “t1/2z geometric mean ratio, point estimate” value [5] was 0.776. It also gave an AUC (both sexes, plasma, oral, CYP2D6 EM, severe RI, coadministered weak CYP3A inhibitor amlodipine, N=5) of 98.3 ng·h/mL, a Cmax (both sexes, plasma, oral, CYP2D6 EM, severe RI, coadministered weak CYP3A inhibitor amlodipine, N=5, read-out: Cmax, geometric mean) of 10.6 ng/mL and an AUC (both sexes, plasma, oral, CYP2D6 EM, severe RI, eliglustat tartrate alone, N=2) of 104 ng·h/mL. It also gave a Cmax (both sexes, plasma, oral, CYP2D6 EM, severe RI, eliglustat tartrate alone, N=2, read-out: Cmax, geometric mean) of 15.2 ng/mL, an AUC(0-inf) (both sexes, plasma, po, CYP2D6 EM, healthy, N=7, single oral 100 mg eliglustat tartrate, plasma, read-out: AUC (extrapolated to infinity), geometric mean) of 101 ng·h/mL and an AUC(0-inf) (both sexes, plasma, po, CYP2D6 EM, healthy, N=7, single oral 100 mg eliglustat tartrate, plasma, read-out: AUC (extrapolated to infinity), mean ± SD) of 118 ± 71.1 ng·h/mL. It also gave an AUC(0-t) (both sexes, plasma, po, CYP2D6 EM, healthy, N=7, single oral 100 mg eliglustat tartrate, plasma, read-out: AUClast, geometric mean) of 96 ng·h/mL, an AUC(0-t) (both sexes, plasma, po, CYP2D6 EM, healthy, N=7, single oral 100 mg eliglustat tartrate, plasma, read-out: AUClast, mean ± SD) of 112 ± 68.7 ng·h/mL and a Cmax (both sexes, plasma, po, CYP2D6 EM, healthy, N=7, single oral 100 mg eliglustat tartrate, plasma, read-out: Cmax, geometric mean) of 13.4 ng/mL. For the same compound, the Cmax (both sexes, plasma, po, CYP2D6 EM, healthy, N=7, single oral 100 mg eliglustat tartrate, plasma, read-out: Cmax, mean ± SD) was 17.6 ± 13.2 ng/mL, the Vd/F (both sexes, plasma, po, CYP2D6 EM, healthy, N=7, single oral 100 mg eliglustat tartrate, plasma, read-out: Vz/F, geometric mean) was 10100 L and the Vd/F (both sexes, plasma, po, CYP2D6 EM, healthy, N=7, single oral 100 mg eliglustat tartrate, plasma, read-out: Vz/F, mean ± SD) was 11700 ± 6710 L. It also gave a Tmax (both sexes, plasma, po, CYP2D6 EM, healthy, N=7, single oral 100 mg eliglustat tartrate, plasma, read-out: tmax, median) of 1.5 h, a Cmax (both sexes, plasma, po, CYP2D6 EM, severe RI, N=7 (5 taking amlodipine), single oral 100 mg eliglustat tartrate, plasma, read-out: Cmax, mean ± SD) of 12.7 ± 4.85 ng/mL and an AUC(0-inf) (both sexes, plasma, po, CYP2D6 EM, severe RI, N=7, single oral 100 mg eliglustat tartrate, plasma, read-out: AUC (extrapolated to infinity), geometric mean) of 99.8 ng·h/mL. The AUC(0-inf) (both sexes, plasma, po, CYP2D6 EM, severe RI, N=7, single oral 100 mg eliglustat tartrate, plasma, read-out: AUC (extrapolated to infinity), mean ± SD) was 107 ± 42.1 ng·h/mL, the AUC(0-t) (both sexes, plasma, po, CYP2D6 EM, severe RI, N=7, single oral 100 mg eliglustat tartrate, plasma, read-out: AUClast, geometric mean) was 95.5 ng·h/mL and the AUC(0-t) (both sexes, plasma, po, CYP2D6 EM, severe RI, N=7, single oral 100 mg eliglustat tartrate, plasma, read-out: AUClast, mean ± SD) was 102 ± 41.7 ng·h/mL. It also gave a Cmax (both sexes, plasma, po, CYP2D6 EM, severe RI, N=7, single oral 100 mg eliglustat tartrate, plasma, read-out: Cmax, geometric mean) of 11.8 ng/mL, a Vd/F (both sexes, plasma, po, CYP2D6 EM, severe RI, N=7, single oral 100 mg eliglustat tartrate, plasma, read-out: Vz/F, geometric mean) of 7940 L and a Vd/F (both sexes, plasma, po, CYP2D6 EM, severe RI, N=7, single oral 100 mg eliglustat tartrate, plasma, read-out: Vz/F, mean ± SD) of 8480 ± 3190 L. For the same compound, the Tmax (both sexes, plasma, po, CYP2D6 EM, severe RI, N=7, single oral 100 mg eliglustat tartrate, plasma, read-out: tmax, median) was 4 h, the AUC(0-inf) (plasma, oral, CYP2D6 IM, healthy, N=1, single oral 100 mg eliglustat tartrate, plasma, read-out: AUC (extrapolated to infinity)) was 559 ng·h/mL and the AUC(0-t) (plasma, oral, CYP2D6 IM, healthy, N=1, single oral 100 mg eliglustat tartrate, plasma, read-out: AUClast) was 520 ng·h/mL. It also gave a Cmax (plasma, oral, CYP2D6 IM, healthy, N=1, single oral 100 mg eliglustat tartrate, plasma, read-out: Cmax) of 54.7 ng/mL, a Vd/F (plasma, oral, CYP2D6 IM, healthy, N=1, single oral 100 mg eliglustat tartrate, plasma, read-out: Vz/F) of 2090 L and a Tmax (plasma, oral, CYP2D6 IM, healthy, N=1, single oral 100 mg eliglustat tartrate, plasma, read-out: tmax) of 3 h. The AUC(0-t) (plasma, oral, CYP2D6 IM, severe RI, N=1, taking escitalopram and amlodipine, single oral 100 mg eliglustat tartrate, plasma, read-out: AUClast) was 3590 ng·h/mL, the Cmax (plasma, oral, CYP2D6 IM, severe RI, N=1, taking escitalopram and amlodipine, single oral 100 mg eliglustat tartrate, plasma, read-out: Cmax) was 220 ng/mL and the Tmax (plasma, oral, CYP2D6 IM, severe RI, N=1, taking escitalopram and amlodipine, single oral 100 mg eliglustat tartrate, plasma, read-out: tmax) was 4 h.

Reference: patent US10888544B2, “Methods for treating Gaucher disease” (Genzyme Corporation, priority 2017, dated 2021)
